From patent US20250287944A1, “AMINOETHOXYVINYLGLYCINE AND 1-AMINO-1-CYCLOPROPANECARBOXYLIC ACID AND USES THEREOF” (Valent BioSciences LLC, priority 2024, published 2025)

Columns and labels:
Assay type in all cases: in vivo
[1] = system: apples, Cripps Pink variety; test: Apple characteristics in Cripps Pink variety (red pixel area, ground color, firmness, starch conversion, brix); set-up: Ground Color / Starch: scale not given here; Firmness: unit not given here; settings: 34 hours post spray; for Average % Red Pixel Area: shaded; for Starch: starch conversion
Method: 10 sets of unripened apples, Cripps Pink variety, harvested three weeks before the normal harvest date, were each foliar sprayed with either 1) 0.05% Regulaid® as a control, 2) 125 ppm ACC, 3) 250 ppm ACC, 4) 500 ppm ACC, 5) 125 ppm AVG, 6) 125 ppm ACC and 125 ppm AVG, 7) 250 ppm ACC and 125 ppm AVG or 8) 500 ppm ACC and 125 ppm AVG. 34 hours post spray application percent red pixel area (shaded), ground color, fruit firmness, starch conversion and brix were measured.

[2] = system: apples, Cripps Pink variety; test: Apple coloration in Cripps Pink variety (blush classes); settings: 34 hours post spray; for % Cripps Red: apples with a blush from 20% to 40%; for % Pink Lady: apples with a blush of greater than 40%; for % Class 3: apples with a blush of less than 20%
Method: 10 sets of unripened apples, Cripps Pink variety, harvested three weeks before the normal harvest date, were each foliar sprayed with either 1) 0.05% Regulaid® as a control, 2) 125 ppm ACC, 3) 250 ppm ACC, 4) 500 ppm ACC, 5) 125 ppm AVG, 6) 125 ppm ACC and 125 ppm AVG, 7) 250 ppm ACC and 125 ppm AVG or 8) 500 ppm ACC and 125 ppm AVG. 34 hours post spray application percent red pixel area (shaded) was measured. Pink Lady denotes apples with a blush of greater than 40%, Cripps Red denotes apples with a blush from 20% to 40% and Class 3 denotes apples with a blush of less than 20%.

[3] = system: apple trees with mature apples of the Cripps Pink variety; test: Fruit drop in Cripps Pink variety
From the text: AVG and/or ACC were applied to apple trees with mature apples of the Cripps Pink variety, wherein each set of trees were foliar sprayed with either 1) 0.05% Regulaid® as a control, 2) 125 ppm ACC, 3) 250 ppm ACC, 4) 500 ppm ACC, 5) 125 ppm AVG, 6) 125 ppm ACC and 125 ppm AVG, 7) 250 ppm ACC and 125 ppm AVG or 8) 500 ppm ACC and 125 ppm AVG.

[4] = system: apples, Cripps Pink variety; test: Apple greasiness in Cripps Pink variety; settings: 12 weeks of cold storage and 7 days at room temperature
Method: 10 sets of unripened apples, Cripps Pink variety, harvested three weeks before the normal harvest date, were each foliar sprayed with either 1) 0.05% Regulaid® as a control, 2) 125 ppm ACC, 3) 250 ppm ACC, 4) 500 ppm ACC, 5) 125 ppm AVG, 6) 125 ppm ACC and 125 ppm AVG, 7) 250 ppm ACC and 125 ppm AVG or 8) 500 ppm ACC and 125 ppm AVG. Following 12 weeks of cold storage and 7 days at room temperature greasiness was measured.

[5] = harvest 1, 125 ppm foliar spray
[6] = harvest 1, 250 ppm foliar spray
[7] = harvest 1, 500 ppm foliar spray
[8] = harvest 2, 125 ppm foliar spray
[9] = harvest 2, 250 ppm foliar spray
[10] = harvest 2, 500 ppm foliar spray

Q: Which Brix ([1]; 125 ppm foliar spray) does the source give for NC1(C(=O)O)CC1 [ACC, 1-amino-1-cyclopropanecarboxylic acid] here?
A: The Brix was 12.25.

Q: And the Firmness ([1]; 125 ppm foliar spray)?
A: Its Firmness is 8.61.

Q: What about the “Ground Color” value ([1]; 125 ppm foliar spray) of the same compound?
A: Its value is 3.01.

Q: What about the “Average % Red Pixel Area” value ([1]; 125 ppm foliar spray) of the same compound?
A: The value was 6.9%.

Q: And the Brix ([1]; 250 ppm foliar spray)?
A: Its Brix is 12.5.

Q: And the Firmness ([1]; 250 ppm foliar spray)?
A: Its Firmness is 8.58.

Q: And the “Ground Color” value ([1]; 250 ppm foliar spray)?
A: Its value is 2.96.

Q: And the “Average % Red Pixel Area” value ([1]; 250 ppm foliar spray)?
A: Its value is 8%.

Q: And the Brix ([1]; 500 ppm foliar spray)?
A: The Brix was 12.51.

Q: What about the Firmness ([1]; 500 ppm foliar spray) of the same compound?
A: The Firmness was 8.4.

Q: And the “Ground Color” value ([1]; 500 ppm foliar spray)?
A: The value was 3.04.

Q: What about the “Average % Red Pixel Area” value ([1]; 500 ppm foliar spray) of the same compound?
A: The value was 8.7%.

Q: And the Starch ([1]; 125 ppm foliar spray)?
A: The Starch was 40.

Q: What about the Starch ([1]; 250 ppm foliar spray) of the same compound?
A: The Starch was 45.3.

Q: And the Starch ([1]; 500 ppm foliar spray)?
A: Its Starch is 56.2.

Q: And the “% Cripps Red” value ([2]; 125 ppm foliar spray)?
A: The value was 15%.

Q: What about the “% Cripps Red” value ([2]; 250 ppm foliar spray) of the same compound?
A: Its value is 11.5%.

Q: And the “% Cripps Red” value ([2]; 500 ppm foliar spray)?
A: The value was 9%.

Q: And the “% Pink Lady” value ([2]; 125 ppm foliar spray)?
A: Its value is 76.5%.

Q: And the “% Pink Lady” value ([2]; 250 ppm foliar spray)?
A: Its value is 84.5%.

Q: And the “% Pink Lady” value ([2]; 500 ppm foliar spray)?
A: The value was 89%.

Q: What about the “% Class 3” value ([2]; 125 ppm foliar spray) of the same compound?
A: Its value is 8.5%.

Q: What about the “% Class 3” value ([2]; 250 ppm foliar spray) of the same compound?
A: The value was 4%.

Q: What about the “% Class 3” value ([2]; 500 ppm foliar spray) of the same compound?
A: Its value is 2%.

Q: And the “# of Fruit Dropped (Evaluation 1)” value ([3]; 125 ppm foliar spray to trees)?
A: The value was 11.3 c.

Q: What about the “# of Fruit Dropped (Evaluation 2)” value ([3]; 125 ppm foliar spray to trees) of the same compound?
A: The value was 10.4 bc.

Q: What about the “Total # of Fruit Dropped” value ([3]; 125 ppm foliar spray to trees) of the same compound?
A: Its value is 26.3 c.

Q: What about the “# of Fruit Dropped (Evaluation 1)” value ([3]; 250 ppm foliar spray to trees) of the same compound?
A: The value was 15.2 c.

Q: And the “# of Fruit Dropped (Evaluation 2)” value ([3]; 250 ppm foliar spray to trees)?
A: Its value is 16.4 b.

Q: And the “Total # of Fruit Dropped” value ([3]; 250 ppm foliar spray to trees)?
A: Its value is 35.2 bc.

Q: And the “# of Fruit Dropped (Evaluation 1)” value ([3]; 500 ppm foliar spray to trees)?
A: The value was 59.7 a.

Q: And the “# of Fruit Dropped (Evaluation 2)” value ([3]; 500 ppm foliar spray to trees)?
A: The value was 40.1 a.

Q: And the “Total # of Fruit Dropped” value ([3]; 500 ppm foliar spray to trees)?
A: Its value is 105.8 a.

Q: What about the “Percent Fruit with Moderate Greasiness” value [4, 5] of the same compound?
A: Its value is 40%.

Q: What about the “Percent Fruit with No Greasiness” value [4, 5] of the same compound?
A: Its value is 21%.

Q: What about the “Percent Fruit with Severe Greasiness” value [4, 5] of the same compound?
A: Its value is 17%.

Q: What about the “Percent Fruit with Slight Greasiness” value [4, 5] of the same compound?
A: The value was 22%.

Q: What about the “Percent Fruit with Moderate Greasiness” value [4, 6] of the same compound?
A: The value was 40%.

Q: And the “Percent Fruit with No Greasiness” value [4, 6]?
A: The value was 5%.

Q: And the “Percent Fruit with Severe Greasiness” value [4, 6]?
A: The value was 39%.

Q: And the “Percent Fruit with Slight Greasiness” value [4, 6]?
A: The value was 16%.

Q: What about the “Percent Fruit with Moderate Greasiness” value [4, 7] of the same compound?
A: The value was 44%.

Q: And the “Percent Fruit with No Greasiness” value [4, 7]?
A: Its value is 1%.

Q: And the “Percent Fruit with Severe Greasiness” value [4, 7]?
A: Its value is 48%.

Q: What about the “Percent Fruit with Slight Greasiness” value [4, 7] of the same compound?
A: The value was 7%.

Q: And the “Percent Fruit with Moderate Greasiness” value [4, 8]?
A: Its value is 31.1%.

Q: And the “Percent Fruit with No Greasiness” value [4, 8]?
A: Its value is 0%.

Q: What about the “Percent Fruit with Severe Greasiness” value [4, 8] of the same compound?
A: Its value is 68.9%.

Q: What about the “Percent Fruit with Slight Greasiness” value [4, 8] of the same compound?
A: Its value is 0%.

Q: What about the “Percent Fruit with Moderate Greasiness” value [4, 9] of the same compound?
A: Its value is 15%.

Q: And the “Percent Fruit with No Greasiness” value [4, 9]?
A: The value was 0%.

Q: What about the “Percent Fruit with Severe Greasiness” value [4, 9] of the same compound?
A: The value was 85%.

Q: And the “Percent Fruit with Slight Greasiness” value [4, 9]?
A: Its value is 0%.

Q: What about the “Percent Fruit with Moderate Greasiness” value [4, 10] of the same compound?
A: Its value is 19%.

Q: What about the “Percent Fruit with No Greasiness” value [4, 10] of the same compound?
A: The value was 0%.

Q: And the “Percent Fruit with Severe Greasiness” value [4, 10]?
A: The value was 81%.

Q: And the “Percent Fruit with Slight Greasiness” value [4, 10]?
A: Its value is 0%.

Q: Which results are given for NCCO/C=C/[C@H](N)C(=O)O [AVG, ([S]-trans-2-amino-4-(2-aminoethoxy)-3-butenoic acid]?
A: Brix ([1]; 125 ppm foliar spray): 12.33; Firmness ([1]; 125 ppm foliar spray): 8.62; Ground Color ([1]; 125 ppm foliar spray): 2.93; Average % Red Pixel Area ([1]; 125 ppm foliar spray): 6.3%; Starch ([1]; 125 ppm foliar spray): 25.9; % Cripps Red ([2]; 125 ppm foliar spray): 21.5%; % Pink Lady ([2]; 125 ppm foliar spray): 69.5%; % Class 3 ([2]; 125 ppm foliar spray): 9%; # of Fruit Dropped (Evaluation 1) ([3]; 125 ppm foliar spray to trees): 9.7 c; # of Fruit Dropped (Evaluation 2) ([3]; 125 ppm foliar spray to trees): 7.4 c; Total # of Fruit Dropped ([3]; 125 ppm foliar spray to trees): 20.8 c; Percent Fruit with Moderate Greasiness [4, 5]: 1%; Percent Fruit with No Greasiness [4, 5]: 94%; Percent Fruit with Severe Greasiness [4, 5]: 0%; Percent Fruit with Slight Greasiness [4, 5]: 5%; Percent Fruit with Moderate Greasiness [4, 8]: 49%; Percent Fruit with No Greasiness [4, 8]: 22%; Percent Fruit with Severe Greasiness [4, 8]: 2%; Percent Fruit with Slight Greasiness [4, 8]: 27%
